Results reported in the NIST ThermoML archive (doi:10.1016/j.fluid.2008.04.002).
± gives the expanded uncertainty stated by the source.

Conditions: Liquid, Closed cell (Static) method

Row | Structure (SMILES) | vapor or sublimation pressure (263.43 K) | vapor or sublimation pressure (273.32 K) | vapor or sublimation pressure (283.22 K) | vapor or sublimation pressure (288.3 K) | vapor or sublimation pressure (293.29 K) | vapor or sublimation pressure (313.31 K) | vapor or sublimation pressure (333.32 K) | vapor or sublimation pressure (353.2 K) | vapor or sublimation pressure (253.65 K) | vapor or sublimation pressure (258.46 K) | vapor or sublimation pressure (263.45 K) | vapor or sublimation pressure (268.33 K) | vapor or sublimation pressure (273.29 K) | vapor or sublimation pressure (278.19 K) | vapor or sublimation pressure (283.25 K) | vapor or sublimation pressure (288.2 K) | vapor or sublimation pressure (290.22 K) | vapor or sublimation pressure (291.22 K) | vapor or sublimation pressure (292.22 K)
1 | FCC(F)(F)F [1,1,1,2-tetrafluoroethane] | 195.7 ± 1 kPa | 287.1 ± 1.2 kPa | 407.2 ± 1.5 kPa | 483.6 ± 1.7 kPa | 566.3 ± 1.9 kPa | 1014.7 ± 3.3 kPa | 1680.4 ± 5.4 kPa | 2636 ± 8.3 kPa | – | – | – | – | – | – | – | – | – | – | –
2 | FC(F)(F)C(F)(F)F [hexafluoroethane] | 1415.3 ± 4.6 kPa | 1862 ± 6 kPa | 2392 ± 7.6 kPa | 2697.6 ± 8.6 kPa | – | – | – | – | 1062.9 ± 2 kPa | 1226.4 ± 2.2 kPa | 1415.3 ± 2.5 kPa | 1621.1 ± 2.8 kPa | 1850 ± 3.2 kPa | 2100.6 ± 3.6 kPa | 2385.8 ± 4.1 kPa | 2697.6 ± 4.6 kPa | 2832.9 ± 4.8 kPa | 2903.4 ± 5 kPa | 2976.2 ± 5.1 kPa
